Experimental data as given in US10870647B2, “Imidazopyridine derivative, method for preparing same, and pharmaceutical composition containing same as active ingredient for preventing or treating cancer” (DAEGU-GYEONGBUK MEDICAL INNOVATION FOUNDATION, priority 2016, dated 2020).
Where two headings read alike, the source gives them in different places.

What was measured:
Assay in all cases: Kinase selectivity, scanMAX Kinase assay panel (DiscoverX), % control at 1 uM
Assay type in all cases: binding
[1] = biological target: T1, scanMAX Kinase assay panel (Homo sapiens, UniProt Q6PHR2); conditions: ULK3; 1 uM; read-out: Percent Control (%)
T1 construct: purchased DiscoverX
T1 sequence (Q6PHR2 1-472): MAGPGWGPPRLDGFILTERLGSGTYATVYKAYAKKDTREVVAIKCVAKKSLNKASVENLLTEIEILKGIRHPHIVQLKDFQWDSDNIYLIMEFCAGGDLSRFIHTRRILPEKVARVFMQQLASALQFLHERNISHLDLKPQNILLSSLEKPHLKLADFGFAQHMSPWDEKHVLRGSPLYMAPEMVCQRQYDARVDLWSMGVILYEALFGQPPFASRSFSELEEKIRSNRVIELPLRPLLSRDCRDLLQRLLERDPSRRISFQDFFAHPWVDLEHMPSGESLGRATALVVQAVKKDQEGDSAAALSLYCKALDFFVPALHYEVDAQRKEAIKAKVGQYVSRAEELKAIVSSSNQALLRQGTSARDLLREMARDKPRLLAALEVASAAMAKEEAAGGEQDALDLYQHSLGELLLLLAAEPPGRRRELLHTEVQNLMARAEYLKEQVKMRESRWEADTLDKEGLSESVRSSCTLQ
Method: (§1) The following experiment was performed to evaluate the inhibitory activity of the compound of the present invention on more enzymes.
(§2) Particularly, among the compounds of the present invention, the compounds of Example 1, Example 12 and Example 78 were selected and assigned to DiscoverX to measure the kinase selectivity. The experiment was performed by using scanMAX™ Kinase assay panel.
(§3) At this time, the concentration of the drug to be treated to the enzyme was adjusted to 1 uM in DMSO, and the control percentage (% control) was determined according to the following Equation 1. [Example Compound−Positive Control/Negative Control−Positive Control]×100 [Equation 1]
(§4) The enzyme selectivity of the compound of the present invention was judged to be active for the enzyme if the % control was <35 (i.e. less than 35%) for each enzyme.

[2] = biological target: T2, scanMAX Kinase assay panel (Homo sapiens, UniProt P80192); conditions: MLK1; 1 uM; read-out: Percent Control (%)
T2 construct: purchased DiscoverX
Method: as §1, §2, §3, §4

[3] = biological target: T3, scanMAX Kinase assay panel (Homo sapiens, UniProt O15264); conditions: p38-delta; 1 uM; read-out: Percent Control (%)
T3 construct: purchased DiscoverX
T3 sequence (O15264 1-365): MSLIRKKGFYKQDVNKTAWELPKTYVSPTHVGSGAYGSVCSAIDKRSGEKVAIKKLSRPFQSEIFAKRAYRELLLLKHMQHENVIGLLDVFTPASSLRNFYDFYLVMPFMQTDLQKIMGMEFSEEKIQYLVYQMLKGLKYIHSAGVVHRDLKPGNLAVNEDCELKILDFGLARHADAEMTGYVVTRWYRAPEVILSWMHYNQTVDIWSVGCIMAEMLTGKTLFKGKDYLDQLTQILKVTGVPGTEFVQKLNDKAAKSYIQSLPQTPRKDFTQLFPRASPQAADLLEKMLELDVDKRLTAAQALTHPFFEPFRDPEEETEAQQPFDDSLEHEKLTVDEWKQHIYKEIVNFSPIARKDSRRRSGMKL
Method: as §1, §2, §3, §4

[4] = biological target: T4, scanMAX Kinase assay panel (Homo sapiens, UniProt Q15349); conditions: 1 uM, read-out: Percent Control (%)
T4 construct: purchased DiscoverX
Method: as §1, §2, §3, §4

[5] = biological target: T5, scanMAX Kinase assay panel (Homo sapiens, UniProt P37023); conditions: ACVRL1; 1 uM; read-out: Percent Control (%)
T5 construct: purchased DiscoverX
Method: as §1, §2, §3, §4

[6] = biological target: T6, scanMAX Kinase assay panel (Homo sapiens, UniProt Q9UKI8); conditions: TLK1; 1 uM; read-out: Percent Control (%)
T6 construct: purchased DiscoverX
T6 sequence (Q9UKI8 1-766): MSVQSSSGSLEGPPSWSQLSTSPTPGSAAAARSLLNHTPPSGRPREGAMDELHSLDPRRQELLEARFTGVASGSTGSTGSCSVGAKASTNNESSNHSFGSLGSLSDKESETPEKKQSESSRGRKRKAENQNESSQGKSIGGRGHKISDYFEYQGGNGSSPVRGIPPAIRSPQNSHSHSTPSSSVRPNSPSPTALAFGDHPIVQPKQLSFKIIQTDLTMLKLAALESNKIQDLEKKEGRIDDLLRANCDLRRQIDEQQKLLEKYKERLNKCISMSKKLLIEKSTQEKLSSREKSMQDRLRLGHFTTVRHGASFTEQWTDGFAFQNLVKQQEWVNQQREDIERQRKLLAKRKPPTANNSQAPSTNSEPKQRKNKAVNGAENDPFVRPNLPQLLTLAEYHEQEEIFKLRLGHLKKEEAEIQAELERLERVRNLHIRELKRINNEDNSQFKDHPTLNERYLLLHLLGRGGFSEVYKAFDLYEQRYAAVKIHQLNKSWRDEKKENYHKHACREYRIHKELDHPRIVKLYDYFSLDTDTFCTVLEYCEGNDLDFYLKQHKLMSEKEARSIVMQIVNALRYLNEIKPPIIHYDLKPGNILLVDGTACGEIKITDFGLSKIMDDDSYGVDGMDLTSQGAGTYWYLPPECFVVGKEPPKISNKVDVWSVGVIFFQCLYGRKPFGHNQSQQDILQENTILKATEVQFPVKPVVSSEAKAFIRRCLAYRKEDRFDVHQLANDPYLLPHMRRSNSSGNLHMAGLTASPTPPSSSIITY
Method: as §1, §2, §3, §4

[7] = biological target: T7, scanMAX Kinase assay panel (Homo sapiens, UniProt P07949, V804L); conditions: RET (V804L); 1 uM; read-out: Percent Control (%)
T7 construct: purchased DiscoverX
Method: as §1, §2, §3, §4

[8] = biological target: T8, scanMAX Kinase assay panel (Homo sapiens, UniProt Q9P289); conditions: MST4; 1 uM; read-out: Percent Control (%)
T8 construct: purchased DiscoverX
Method: as §1, §2, §3, §4

[9] = biological target: T9, scanMAX Kinase assay panel (Homo sapiens, UniProt P16591); conditions: FER; 1 uM; read-out: Percent Control (%)
T9 construct: purchased DiscoverX
Method: as §1, §2, §3, §4

T4 sequence (Q15349 whole entry): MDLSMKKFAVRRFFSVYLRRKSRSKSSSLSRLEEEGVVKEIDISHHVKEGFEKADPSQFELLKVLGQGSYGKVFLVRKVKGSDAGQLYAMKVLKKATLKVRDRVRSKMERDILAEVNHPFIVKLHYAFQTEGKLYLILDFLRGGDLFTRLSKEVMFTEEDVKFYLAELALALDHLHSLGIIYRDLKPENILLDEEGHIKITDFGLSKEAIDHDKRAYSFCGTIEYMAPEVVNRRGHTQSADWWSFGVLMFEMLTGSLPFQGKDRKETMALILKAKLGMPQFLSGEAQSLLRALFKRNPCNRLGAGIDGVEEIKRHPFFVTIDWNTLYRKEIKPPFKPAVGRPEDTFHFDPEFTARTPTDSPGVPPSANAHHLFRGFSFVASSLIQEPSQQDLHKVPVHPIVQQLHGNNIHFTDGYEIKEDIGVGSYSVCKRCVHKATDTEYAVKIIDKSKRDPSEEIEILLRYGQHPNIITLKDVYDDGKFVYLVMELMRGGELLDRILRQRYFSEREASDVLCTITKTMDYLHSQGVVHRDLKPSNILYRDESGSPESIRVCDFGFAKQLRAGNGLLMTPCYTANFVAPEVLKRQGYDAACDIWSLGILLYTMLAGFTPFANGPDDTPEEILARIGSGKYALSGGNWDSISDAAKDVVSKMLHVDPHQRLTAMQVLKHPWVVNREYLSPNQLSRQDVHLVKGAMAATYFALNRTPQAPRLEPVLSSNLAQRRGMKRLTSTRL
T7 sequence (P07949 29-1114 V804L): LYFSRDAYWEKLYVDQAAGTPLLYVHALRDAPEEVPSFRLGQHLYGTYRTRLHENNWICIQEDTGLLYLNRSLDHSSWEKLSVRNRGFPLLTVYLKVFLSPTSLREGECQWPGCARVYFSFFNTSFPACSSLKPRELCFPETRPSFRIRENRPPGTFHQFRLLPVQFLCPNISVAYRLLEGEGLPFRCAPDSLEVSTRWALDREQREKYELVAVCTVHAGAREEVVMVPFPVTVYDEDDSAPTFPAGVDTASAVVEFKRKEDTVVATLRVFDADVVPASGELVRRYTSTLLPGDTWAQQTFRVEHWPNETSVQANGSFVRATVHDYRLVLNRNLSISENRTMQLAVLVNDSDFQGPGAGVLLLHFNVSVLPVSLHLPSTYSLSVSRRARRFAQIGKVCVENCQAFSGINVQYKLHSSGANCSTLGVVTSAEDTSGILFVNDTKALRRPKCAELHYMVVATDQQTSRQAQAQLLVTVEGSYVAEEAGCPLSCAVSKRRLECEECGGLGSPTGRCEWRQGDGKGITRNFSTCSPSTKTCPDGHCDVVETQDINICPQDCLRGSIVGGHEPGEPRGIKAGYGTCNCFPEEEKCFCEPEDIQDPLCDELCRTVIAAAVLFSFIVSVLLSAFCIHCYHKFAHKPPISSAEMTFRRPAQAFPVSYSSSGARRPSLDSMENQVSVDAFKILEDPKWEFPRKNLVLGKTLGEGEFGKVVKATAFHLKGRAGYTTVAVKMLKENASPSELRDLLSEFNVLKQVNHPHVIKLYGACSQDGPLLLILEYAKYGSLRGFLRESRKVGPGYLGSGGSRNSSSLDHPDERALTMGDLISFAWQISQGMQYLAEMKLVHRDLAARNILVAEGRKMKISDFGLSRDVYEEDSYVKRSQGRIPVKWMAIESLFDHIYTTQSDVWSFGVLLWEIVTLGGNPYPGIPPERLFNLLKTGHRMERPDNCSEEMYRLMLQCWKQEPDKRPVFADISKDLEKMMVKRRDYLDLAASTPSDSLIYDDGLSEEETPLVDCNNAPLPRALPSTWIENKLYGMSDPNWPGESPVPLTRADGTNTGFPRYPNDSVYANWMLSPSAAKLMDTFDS
T2 sequence (P80192 whole entry): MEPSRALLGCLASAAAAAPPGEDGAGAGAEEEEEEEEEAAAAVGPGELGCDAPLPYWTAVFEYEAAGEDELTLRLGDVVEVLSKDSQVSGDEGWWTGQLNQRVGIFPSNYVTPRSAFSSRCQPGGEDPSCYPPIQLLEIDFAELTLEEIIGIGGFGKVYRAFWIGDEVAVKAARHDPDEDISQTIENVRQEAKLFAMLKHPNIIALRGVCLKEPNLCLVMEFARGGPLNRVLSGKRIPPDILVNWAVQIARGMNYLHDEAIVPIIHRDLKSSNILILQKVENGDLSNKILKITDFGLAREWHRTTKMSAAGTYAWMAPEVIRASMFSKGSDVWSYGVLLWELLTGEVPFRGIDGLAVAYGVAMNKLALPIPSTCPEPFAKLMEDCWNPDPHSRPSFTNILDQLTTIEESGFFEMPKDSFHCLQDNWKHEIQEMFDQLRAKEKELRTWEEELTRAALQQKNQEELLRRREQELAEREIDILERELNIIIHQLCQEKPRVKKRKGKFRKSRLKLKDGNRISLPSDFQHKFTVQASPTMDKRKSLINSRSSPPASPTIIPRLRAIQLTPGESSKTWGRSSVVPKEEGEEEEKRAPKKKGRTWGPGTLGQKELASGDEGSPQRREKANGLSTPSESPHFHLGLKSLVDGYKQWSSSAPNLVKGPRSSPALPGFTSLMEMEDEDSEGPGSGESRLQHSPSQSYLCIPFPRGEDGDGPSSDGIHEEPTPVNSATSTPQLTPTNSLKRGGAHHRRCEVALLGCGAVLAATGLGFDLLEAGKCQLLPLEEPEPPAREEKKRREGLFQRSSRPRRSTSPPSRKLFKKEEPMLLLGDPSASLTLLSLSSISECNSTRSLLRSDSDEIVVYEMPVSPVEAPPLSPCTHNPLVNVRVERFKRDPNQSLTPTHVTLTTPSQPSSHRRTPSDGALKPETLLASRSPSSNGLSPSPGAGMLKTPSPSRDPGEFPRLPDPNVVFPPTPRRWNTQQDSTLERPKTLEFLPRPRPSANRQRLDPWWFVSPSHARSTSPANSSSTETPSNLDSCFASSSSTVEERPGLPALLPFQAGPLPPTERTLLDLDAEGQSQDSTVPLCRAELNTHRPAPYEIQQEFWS
T5 sequence (P37023 22-503): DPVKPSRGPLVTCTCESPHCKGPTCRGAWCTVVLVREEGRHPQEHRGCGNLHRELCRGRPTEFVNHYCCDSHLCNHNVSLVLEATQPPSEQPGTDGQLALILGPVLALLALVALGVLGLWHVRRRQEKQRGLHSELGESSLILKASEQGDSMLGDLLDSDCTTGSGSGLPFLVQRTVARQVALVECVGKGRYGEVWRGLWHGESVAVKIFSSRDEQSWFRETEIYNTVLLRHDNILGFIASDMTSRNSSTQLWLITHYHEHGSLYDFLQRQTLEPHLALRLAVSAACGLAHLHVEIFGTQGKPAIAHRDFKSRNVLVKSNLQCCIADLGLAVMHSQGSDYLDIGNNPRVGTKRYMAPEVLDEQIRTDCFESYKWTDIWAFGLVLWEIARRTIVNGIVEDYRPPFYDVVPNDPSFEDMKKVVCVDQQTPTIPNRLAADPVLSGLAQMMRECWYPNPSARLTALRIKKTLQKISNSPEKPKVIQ
T9 sequence (P16591 whole entry): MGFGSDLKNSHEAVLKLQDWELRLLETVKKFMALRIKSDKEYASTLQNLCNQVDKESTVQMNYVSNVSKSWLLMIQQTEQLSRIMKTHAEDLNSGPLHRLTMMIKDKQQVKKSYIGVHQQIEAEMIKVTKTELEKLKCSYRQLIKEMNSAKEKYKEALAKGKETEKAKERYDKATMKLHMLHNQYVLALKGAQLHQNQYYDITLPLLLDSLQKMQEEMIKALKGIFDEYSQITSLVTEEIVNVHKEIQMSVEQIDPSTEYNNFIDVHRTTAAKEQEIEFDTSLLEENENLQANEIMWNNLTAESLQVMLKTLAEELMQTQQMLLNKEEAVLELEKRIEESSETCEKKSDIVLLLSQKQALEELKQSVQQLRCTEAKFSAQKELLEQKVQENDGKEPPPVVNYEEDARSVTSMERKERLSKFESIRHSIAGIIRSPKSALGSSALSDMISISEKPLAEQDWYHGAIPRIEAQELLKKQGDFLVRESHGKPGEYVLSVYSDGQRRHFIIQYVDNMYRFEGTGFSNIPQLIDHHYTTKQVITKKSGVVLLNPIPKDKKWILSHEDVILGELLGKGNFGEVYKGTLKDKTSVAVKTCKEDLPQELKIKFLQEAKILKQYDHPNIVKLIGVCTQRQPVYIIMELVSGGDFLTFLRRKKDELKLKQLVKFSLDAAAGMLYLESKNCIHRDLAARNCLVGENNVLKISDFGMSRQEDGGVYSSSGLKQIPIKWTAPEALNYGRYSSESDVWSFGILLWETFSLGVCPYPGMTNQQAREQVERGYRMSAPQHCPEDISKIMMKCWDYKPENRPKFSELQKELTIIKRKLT
T8 sequence (Q9P289 whole entry): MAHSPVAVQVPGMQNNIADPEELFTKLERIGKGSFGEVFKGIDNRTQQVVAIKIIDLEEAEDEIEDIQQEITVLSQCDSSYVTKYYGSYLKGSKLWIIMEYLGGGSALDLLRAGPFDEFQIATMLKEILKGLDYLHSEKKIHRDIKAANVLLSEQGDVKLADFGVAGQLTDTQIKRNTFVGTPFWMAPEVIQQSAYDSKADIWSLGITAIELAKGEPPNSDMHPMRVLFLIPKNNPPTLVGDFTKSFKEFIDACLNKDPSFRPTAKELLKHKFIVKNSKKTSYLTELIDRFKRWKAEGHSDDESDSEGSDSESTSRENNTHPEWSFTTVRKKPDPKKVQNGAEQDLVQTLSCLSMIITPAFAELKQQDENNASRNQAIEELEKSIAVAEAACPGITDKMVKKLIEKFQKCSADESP

## Cc1ccc(C(=O)Nc2ccc(CN3CCN(C)CC3)c(C(F)(F)F)c2)cc1C#Cc1cnc2c(Nc3cnn(C)c3)cccn12 [Example 1, 4-methyl-3-((8-((1-methyl-1H-pyrazol-4-yl)amino)imidazo[1,2-a]pyridin-3-yl)ethynyl)-N-(4-((4-methylpiperazin-1-yl)methyl)-3-(trifluoromethyl)phenyl)benzamide]
[1]
  remaining binding at 1 µM: 1%
[2]
  remaining binding at 1 µM: 3%
[3]
  remaining binding at 1 µM: 16%
[4]; RSK3 (Kin.Dom.1-N-terminal)
  remaining binding at 1 µM: 29%
[4]; RSK3 (Kin.Dom.2-C-terminal)
  remaining binding at 1 µM: 61%
[5]
  remaining binding at 1 µM: 99%
[6]
  remaining binding at 1 µM: 93%
[7]
  remaining binding at 1 µM: 0%
[8]
  remaining binding at 1 µM: 55%
[9]
  remaining binding at 1 µM: 1%

## Cc1cn(-c2cc(NC(=O)c3ccc(C)c(C#Cc4cnc5c(Nc6cnn(C)c6)cccn45)c3)cc(C(F)(F)F)c2)cn1 [Example 12, 4-methyl-N-(3-(4-methyl-1H-imidazol-1-yl)-5-(trifluoromethyl)phenyl)-3-((8-((1-methyl-1H-pyrazol-4-yl)amino)imidazo[1,2-a]pyridin-3-yl)ethynyl)benzamide]
[1]
  remaining binding at 1 µM: 91%
[2]
  remaining binding at 1 µM: 35%
[3]
  remaining binding at 1 µM: 78%
[4]; RSK3 (Kin.Dom.1-N-terminal)
  remaining binding at 1 µM: 65%
[4]; RSK3 (Kin.Dom.2-C-terminal)
  remaining binding at 1 µM: 86%
[5]
  remaining binding at 1 µM: 99%
[6]
  remaining binding at 1 µM: 75%
[7]
  remaining binding at 1 µM: 2%
[8]
  remaining binding at 1 µM: 91%
[9]
  remaining binding at 1 µM: 40%

## Cc1ccc(NC(=O)C2(C(=O)Nc3ccc(F)cc3)CC2)cc1C#Cc1cnc2c(Nc3cnn(C(C)C)c3)cccn12 [Example 78]
[1]
  remaining binding at 1 µM: 100%
[2]
  remaining binding at 1 µM: 100%
[3]
  remaining binding at 1 µM: 100%
[4]; RSK3 (Kin.Dom.1-N-terminal)
  remaining binding at 1 µM: 97%
[4]; RSK3 (Kin.Dom.2-C-terminal)
  remaining binding at 1 µM: 100%
[5]
  remaining binding at 1 µM: 100%
[6]
  remaining binding at 1 µM: 96%
[7]
  remaining binding at 1 µM: 100%
[8]
  remaining binding at 1 µM: 100%
[9]
  remaining binding at 1 µM: 100%
